{"source": "patent US10294202B2", "about": "“Pyrrolidinones as herbicides” (FMC Corporation, priority 2013, dated 2019)", "key": {"velvetleaf": {"test_system": "velvetleaf", "experiment": "Test C pre-/postemergence herbicide test", "assay_type": "in vivo, Abutilon theophrasti", "method_in_brief": "(§1)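 Pre-emergence: seeds sown in loam/sand blend and treated with compound in surfactant-containing solvent. Post-emergence: plants at 2–18 cm (1- to 4-leaf stage) in peat-based medium sprayed with the same formulation. Visual rating versus controls after 13–15 days in greenhouse, scale 0 (no effect) to 100 (complete control).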"}, "giant foxtail": {"test_system": "giant foxtail", "experiment": "Test A pre-/postemergence herbicide test", "assay_type": "in vivo, Setaria faberii", "details": "for Plant response rating, Foxtail, Giant: 0 to 100 scale", "method_in_brief": "(§2)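 Seeds in loam–sand blend received preemergence directed soil spray; separately, plants 2–10 cm at one- to two-leaf stage received postemergence spray, both with test chemicals in non-phytotoxic solvent with surfactant. After ~10 days in greenhouse, injury rated visually against untreated controls, 0 (no effect) to 100 (complete control).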"}, "ragweed [1]": {"test_system": "ragweed", "experiment": "Test C pre-/postemergence herbicide test", "assay_type": "in vivo, Ambrosia elatior", "method_in_brief": "as §1"}, "ragweed [2]": {"test_system": "ragweed", "experiment": "Test A pre-/postemergence herbicide test", "assay_type": "in vivo, Ambrosia elatior", "details": "for Plant response rating, Ragweed: 0 to 100 scale", "method_in_brief": "as §2"}, "blackgrass": {"test_system": "blackgrass", "experiment": "Test A postemergence herbicide test", "assay_type": "in vivo, Alopecurus myosuroides", "method_in_brief": "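Young potted plants in a loam–sand mix, one- to two-leaf stage and 2–10 cm tall, receive the test chemical postemergence and stay in a greenhouse for approximately 10 days. Injury is then judged by eye against untreated plants, scored 0 (none) to 100 (complete control).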"}, "oat, wild": {"test_system": "oat, wild", "experiment": "Test C pre-/postemergence herbicide test", "assay_type": "in vivo, Avena fatua", "details": "Postemergence", "method_in_brief": "as §1"}, "kochia": {"test_system": "kochia", "experiment": "Test A pre-/postemergence herbicide test", "assay_type": "in vivo, Kochia scoparia", "details": "for Plant response rating, Kochia: 0 to 100 scale", "method_in_brief": "as §2"}, "ryegrass, Italian": {"test_system": "ryegrass, Italian", "experiment": "Test C pre-/postemergence herbicide test", "assay_type": "in vivo, Lolium multiflorum", "method_in_brief": "as §1"}, "rice": {"test_system": "rice", "experiment": "Test C flooded paddy test", "assay_type": "in vivo, Oryza sativa", "details": "Flood", "method_in_brief": "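Ratings reflect visual comparison with controls on a 0–100 scale, where 100 is complete control. Compound is dosed into standing paddy water 3 cm deep over 2-leaf-stage plants, kept in the greenhouse 13 to 15 days.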"}, "[3]": {"details": "Postemergence, 31 g ai/ha, scale 0 to 100 (0 no effect, 100 complete control)"}, "[4]": {"details": "Postemergence, 62 g ai/ha, scale 0 (no effect) to 100 (complete control)"}, "[5]": {"details": "Postemergence, 125 g ai/ha, scale 0 to 100 (0 no effect, 100 complete control)"}, "[6]": {"details": "Postemergence, 250 g ai/ha, scale 0 to 100 (0 no effect, 100 complete control)"}, "[7]": {"details": "Preemergence, 31 g ai/ha, scale 0 to 100, 0 is no effect and 100 is complete control"}, "[8]": {"details": "Preemergence, 62 g ai/ha, scale 0 to 100"}, "[9]": {"details": "Preemergence, 125 g ai/ha, scale 0 to 100 (0 no effect, 100 complete control)"}, "[10]": {"details": "125 g ai/ha, visual rating, 0 no effect, 100 complete control, approximately 10 days, preemergence"}, "[11]": {"details": "Postemergence, 125 g ai/ha, 0 no effect, 100 complete control"}}, "data": [{"smiles": "O=C1NCC(c2ccc(F)cc2)C1C(=O)Nc1cccc(F)c1F", "note": "(racemic) [Compound 119]", "values": [{"measurement": "Plant response rating, Velvetleaf", "setting": "velvetleaf; [3]", "value": 0}, {"measurement": "Plant response rating, Velvetleaf", "setting": "velvetleaf; [4]", "value": 0}, {"measurement": "Plant response rating, Velvetleaf", "setting": "velvetleaf; [5]", "value": 15}, {"measurement": "Plant response rating, Velvetleaf", "setting": "velvetleaf; [6]", "value": 20}, {"measurement": "Velvetleaf plant response rating", "setting": "velvetleaf; [7]", "value": 0}, {"measurement": "Plant response rating, Velvetleaf", "setting": "velvetleaf; [8]", "value": 15}, {"measurement": "Plant response rating, Velvetleaf", "setting": "velvetleaf; [9]", "value": 40}, {"measurement": "Plant response rating (scale of 0 to 100), Velvetleaf", "setting": "velvetleaf; Preemergence, 250 g ai/ha", "value": 50}, {"measurement": "Plant response rating, Foxtail, Giant", "setting": "giant foxtail; [10]", "value": 90}, {"measurement": "Plant response rating, Foxtail, Giant", "setting": "giant foxtail; [11]", "value": 90}, {"measurement": "Foxtail, Giant plant response rating (0 to 100 scale, 0 is no effect, 100 is complete control)", "setting": "giant foxtail; Postemergence, 500 g ai/ha", "value": 90}, {"measurement": "Plant response rating, Foxtail, Giant", "setting": "giant foxtail; preemergence, 500 g ai/ha", "value": 90}, {"measurement": "Plant response rating, Ragweed", "setting": "ragweed [1]; [3]", "value": 20}, {"measurement": "Plant response rating, Ragweed", "setting": "ragweed [1]; [4]", "value": 0}, {"measurement": "Plant response rating, Ragweed", "setting": "ragweed [1]; [5]", "value": 45}, {"measurement": "Plant response rating, Ragweed", "setting": "ragweed [1]; [6]", "value": 25}, {"measurement": "Ragweed plant response rating", "setting": "ragweed [1]; [7]", "value": 60}, {"measurement": "Plant response rating, Ragweed", "setting": "ragweed [1]; [8]", "value": 35}, {"measurement": "Plant response rating, Ragweed", "setting": "ragweed [1]; [9]", "value": 75}, {"measurement": "Plant response rating (scale of 0 to 100), Ragweed", "setting": "ragweed [1]; Preemergence, 250 g ai/ha", "value": 80}, {"measurement": "Plant response rating, Ragweed", "setting": "ragweed [2]; [10]", "value": 70}, {"measurement": "Plant response rating, Ragweed", "setting": "ragweed [2]; [11]", "value": 20}, {"measurement": "Ragweed plant response rating (0 to 100 scale, 0 is no effect, 100 is complete control)", "setting": "ragweed [2]; Postemergence, 500 g ai/ha", "value": 30}, {"measurement": "Plant response rating, Ragweed", "setting": "ragweed [2]; preemergence, 500 g ai/ha", "value": 80}, {"measurement": "Plant response rating, Blackgrass", "setting": "blackgrass; 125 g ai/ha, 0 to 100 scale, 0 no effect, 100 complete control", "value": 30}, {"measurement": "Plant response rating, Blackgrass", "setting": "blackgrass; 500 g ai/ha, 0 to 100 scale (0 no effect, 100 complete control)", "value": 50}, {"measurement": "Plant response rating, Oat, Wild", "setting": "oat, wild; 31 g ai/ha, scale 0 to 100 (0 no effect, 100 complete control)", "value": 0}, {"measurement": "Plant response rating, Oat, Wild", "setting": "oat, wild; 62 g ai/ha, scale 0 (no effect) to 100 (complete control)", "value": 0}, {"measurement": "Plant response rating, Oat, Wild", "setting": "oat, wild; 125 g ai/ha, scale 0 to 100 (0 no effect, 100 complete control)", "value": 0}, {"measurement": "Plant response rating, Oat, Wild", "setting": "oat, wild; 250 g ai/ha, scale 0 to 100 (0 no effect, 100 complete control)", "value": 0}, {"measurement": "Plant response rating, Kochia", "setting": "kochia; [10]", "value": 40}, {"measurement": "Plant response rating, Kochia", "setting": "kochia; [11]", "value": 40}, {"measurement": "Kochia plant response rating (0 to 100 scale, 0 is no effect, 100 is complete control)", "setting": "kochia; Postemergence, 500 g ai/ha", "value": 50}, {"measurement": "Plant response rating, Kochia", "setting": "kochia; preemergence, 500 g ai/ha", "value": 60}, {"measurement": "Plant response rating, Ryegrass, Italian", "setting": "ryegrass, Italian; [3]", "value": 0}, {"measurement": "Plant response rating, Ryegrass, Italian", "setting": "ryegrass, Italian; [4]", "value": 0}, {"measurement": "Plant response rating, Ryegrass, Italian", "setting": "ryegrass, Italian; [5]", "value": 0}, {"measurement": "Plant response rating, Ryegrass, Italian", "setting": "ryegrass, Italian; [6]", "value": 5}, {"measurement": "Ryegrass, Italian plant response rating", "setting": "ryegrass, Italian; [7]", "value": 0}, {"measurement": "Plant response rating, Ryegrass, Italian", "setting": "ryegrass, Italian; [8]", "value": 15}, {"measurement": "Plant response rating, Ryegrass, Italian", "setting": "ryegrass, Italian; [9]", "value": 30}, {"measurement": "Plant response rating (scale of 0 to 100), Ryegrass, Italian", "setting": "ryegrass, Italian; Preemergence, 250 g ai/ha", "value": 40}, {"measurement": "Plant response rating, Rice", "setting": "rice; 31 g ai/ha, scale of 0 to 100 where 0 is no effect and 100 is complete control, 13 to 15 days", "value": 0}, {"measurement": "Plant response rating, Rice", "setting": "rice; 62 g ai/ha, scale of 0 to 100 where 0 is no effect and 100 is complete control, 13 to 15 days", "value": 0}, {"measurement": "Plant response rating, Rice", "setting": "rice; 125 g ai/ha, scale of 0 to 100 where 0 is no effect and 100 is complete control, 13 to 15 days", "value": 10}, {"measurement": "Plant response rating, Rice", "setting": "rice; 250 g ai/ha, scale 0 to 100", "value": 20}]}]}
